Laboratory results: patent US10618918B2, “Substituted boronic acids as antimicrobials” (priority 2015, dated 2020)

Legend:
KP1005 CTX-M-14 [1] = assay: Tigemonam potentiation (MPC@4), strain KP1005 CTX-M-14
ec302 TEM-10 [2] = assay: Tigemonam potentiation (MPC@4), strain ec302 TEM-10; format: cell-based; conditions: strain ec302 TEM-10; tigemonam alone
ec308 SHV-5 [3] = assay: Tigemonam potentiation (MPC@4), strain ec308 SHV-5; format: cell-based; conditions: strain ec308 SHV-5; tigemonam alone
EC1010 CMY-6 [4] = assay: Tigemonam potentiation (MPC@4), strain EC1010 CMY-6; format: cell-based; conditions: strain EC1010 CMY-6; tigemonam alone
ECL1002 = assay: Tigemonam potentiation (MPC@4), strain ECL1002; format: cell-based; conditions: strain ECL1002; tigemonam alone
KP1010 SHV-12 [5] = assay: Tigemonam potentiation (MPC@4), strain KP1010 SHV-12; conditions: strain KP1010 SHV-12; tigemonam alone
KP1009 CTX-M-15 [6] = assay: Tigemonam potentiation (MPC@4), strain KP1009 CTX-M-15
ec308 SHV-5 [7] = assay: Aztreonam potentiation (MPC@4), strain ec308 SHV-5; conditions: read-out: Aztreonam MIC
KP1004 KPC-2 = assay: Aztreonam potentiation (MPC@4), strain KP1004 KPC-2; conditions: read-out: Aztreonam MIC
KP1009 CTX-M-15 [8] = assay: Aztreonam potentiation (MPC@4), strain KP1009 CTX-M-15; conditions: read-out: Aztreonam MIC
ec302 TEM-10 [9] = assay: Aztreonam potentiation (MPC@4), strain ec302 TEM-10; conditions: read-out: Aztreonam MIC
EC1010 CMY-6 [10] = assay: Aztreonam potentiation (MPC@4), strain EC1010 CMY-6; conditions: read-out: Aztreonam MIC
KP1005 CTX-M-14 [11] = assay: Aztreonam potentiation (MPC@4), strain KP1005 CTX-M-14; conditions: read-out: Aztreonam MIC
KP1010 SHV-12 [12] = assay: Aztreonam potentiation (MPC@4), strain KP1010 SHV-12; conditions: read-out: Aztreonam MIC

CC1(C)[C@H](NC(=O)/C(=N\OCC(=O)O)c2csc(N)n2)C(=O)N1OS(=O)(=O)O [Tigemonam, reference compound]
Tigemonam MIC (KP1005 CTX-M-14 [1]): >64 µg/mL
Tigemonam MIC (ec302 TEM-10 [2]): >64 µg/mL
Tigemonam MIC (ec308 SHV-5 [3]): >64 µg/mL
Tigemonam MIC (EC1010 CMY-6 [4]): 16 µg/mL
Tigemonam MIC (ECL1002): 32 µg/mL
Tigemonam MIC (KP1010 SHV-12 [5]): >64 µg/mL
Tigemonam MIC (KP1009 CTX-M-15 [6]): >64 µg/mL

C[C@H]1[C@H](NC(=O)/C(=N\OC(C)(C)C(=O)O)c2csc(N)n2)C(=O)N1S(=O)(=O)O [Aztreonam, reference compound]
MIC (ec308 SHV-5 [7]): > 128 µg/mL
MIC (KP1004 KPC-2): > 128 µg/mL
MIC (KP1009 CTX-M-15 [8]): > 128 µg/mL
MIC (ec302 TEM-10 [9]): 128 µg/mL
MIC (EC1010 CMY-6 [10]): > 128 µg/mL
MIC (KP1005 CTX-M-14 [11]): > 128 µg/mL
MIC (KP1010 SHV-12 [12]): 64 µg/mL
